Experimental data reported in patent publication US9540389B2, “Antimicrobial potentiators” (priority 2013, dated 2017).

How the values were obtained:
Assay in all cases: Time-kill assay (CIP and/or EPI)
E. coli AB1157 ΔacrF = format: cell-based, Escherichia coli; conditions: 25 μM MBX2319 + 1×MIC CIP, 2 hours
Protocol: (§1) Panel (C): Bactericidal activity of CIP alone, 25 μM MBX2319 alone, or 25 μM MBX2319 combined with a bacteriostatic concentration of CIP against E. coli AB1157 and isogenic efflux defective mutants after 2 hours exposure. […] Panel (D): Bactericidal activity of CIP alone, 25 μM MBX2319 alone, 25 μM PAβN alone, and a bacteriostatic concentration of CIP combined with 25 μM MBX2319 or combined with 25 μM PAβN against the following organisms: a) E. coli AB1157, b) E. coli ATCC 25922, c) K. pneumoniae ATCC 700603, d) S. flexneri ATCC 12022, e) S. enterica ATCC 14028, f) E. aerogenes ATCC 13048.
(§2) • Strains and Reagents. The following strains were obtained from the Keio collection (Baba, et al.: Construction of Escherichia coli K-12 in-frame, single-gene knockout mutants: the Keio collection. In Mol Syst Biol, vol. 2, pp. 2006 0008, (2006)): JW0451 (ΔacrB::kan), JW5503 (ΔtolC::kan), JW3234 (ΔacrF::kan), JW2661 (ΔemrB::kan), JW0863 (ΔmacB::kan). The deletion mutations in each of these strains were transferred to AB1157 using P1 phage transduction (see Table 1). The construction of the E. coli cell-based reporter strain (SOS-XXX) that was used for high throughput screening is described in detail in the supplementary information. […] Irgasan was a generous gift from Ciba Speciality Chemicals, Inc. (High Point, N.C.). Hoechst 33342 (H33342) was purchased from Molecular Probes (Eugene, Oreg.). […] Luria Broth (Miller) and agar were purchased as prepared dehydrated media from Becton Dickenson (Franklin Lakes, N.J.). The compound libraries used in high-throughput screens were purchased from Chembridge (San Diego, Calif.), ChemDiv (San Diego, Calif.), and TimTec (Newark, Del.). MBX2319 was synthesized by Microbiotix, Inc. • Antibacterial Activity Assays. The minimal inhibitory concentration (MIC) of antibacterial agents and biocides were determined using the microbroth dilution method essentially as described in the CLSI protocol M7-A7 (CLSI: Method for dilution antimicrobial susceptibility testing for bacteria that grow aerobically; Approved standard-document M7-A7. In Clinical and Laboratory Standards Institute document M7-A7, Clinical and Laboratory Standards Institute, Wayne, Pa., (2006)), with the following exceptions. LB media was used instead of MHB. […] The final concentration of DMSO in each assay was 2%. […] MIC assays were performed in triplicate and the geometric mean was calculated. […] Viability was monitored over 2-4 hours by making serial dilutions in saline and spotting 5 μl of each dilution onto the surface of an LB agar plate in triplicate. Colonies were counted after the plates were incubated at 37° C. for 16-18 hr, colony forming units (CFU) per ml were calculated, and the average and standard deviation for the three replicates was determined. […]

E. coli AB1157 = format: cell-based, Escherichia coli
Protocol: as §1, §2

E. aerogenes ATCC 13048 = format: cell-based; conditions: Enterobacter aerogenes; 25 μM EPI + CIP 0.5 or 1×MIC
Protocol: as §1
(§3) • Strains and Reagents. The following strains were obtained from the Keio collection (Baba, et al.: Construction of Escherichia coli K-12 in-frame, single-gene knockout mutants: the Keio collection. In Mol Syst Biol, vol. 2, pp. 2006 0008, (2006)): JW0451 (ΔacrB::kan), JW5503 (ΔtolC::kan), JW3234 (ΔacrF::kan), JW2661 (ΔemrB::kan), JW0863 (ΔmacB::kan). The deletion mutations in each of these strains were transferred to AB1157 using P1 phage transduction (see Table 1). […] The minimal inhibitory concentration (MIC) of antibacterial agents and biocides were determined using the microbroth dilution method essentially as described in the CLSI protocol M7-A7 (CLSI: Method for dilution antimicrobial susceptibility testing for bacteria that grow aerobically; Approved standard-document M7-A7. In Clinical and Laboratory Standards Institute document M7-A7, Clinical and Laboratory Standards Institute, Wayne, Pa., (2006)), with the following exceptions. […] MIC assays were performed in triplicate and the geometric mean was calculated. […] Viability was monitored over 2-4 hours by making serial dilutions in saline and spotting 5 μl of each dilution onto the surface of an LB agar plate in triplicate. Colonies were counted after the plates were incubated at 37° C. for 16-18 hr, colony forming units (CFU) per ml were calculated, and the average and standard deviation for the three replicates was determined. […]

[1] = system: K. pneumoniae ATCC 700603; format: cell-based; conditions: Klebsiella pneumoniae; 25 μM EPI + CIP 0.5 or 1×MIC
Protocol: as §1, §3

S. enterica ATCC 14028 = format: cell-based; conditions: Salmonella enterica; 25 μM EPI + CIP 0.5 or 1×MIC
Protocol: as §1, §3

In the case of `CC1(C)Cc2c(C#N)c(SCCc3ccccc3)nc(N3CCOCC3)c2CO1` [MBX2319], the “potentiation of the bactericidal activity of CIP” value (E. coli AB1157 ΔacrF) is reported as “potentiated the bactericidal activity of CIP”, the “decreased viability (CFU/ml) as compared to 1×MIC CIP alone” value (E. coli AB1157; 3.13 μM MBX2319 + […] CIP, 4 hr exposure) is reported as 10,000 fold and the “effect on bactericidal activity of […] CIP (1×MIC)” value (E. coli AB1157; MBX2319 up to 3.13 μM, dose-dependent, PAβN as high as 100 μM) is reported as “increased the bactericidal activity”. The “effect on growth, compound alone” value (E. coli AB1157; alone at concentrations up to 50 μM) was “did not affect growth”, the “decreased viability as compared to CIP alone” value (E. aerogenes ATCC 13048) was 100-1000 fold and the “decreased viability as compared to CIP alone” value [1] was 100-1000 fold. The “decreased viability as compared to CIP alone” value (S. enterica ATCC 14028) was 100-1000 fold.
